One assay addresses BRAF V660E (Homo sapiens, UniProt P15056, V600E). The experiment in a line: KD BRAF V660E (Table 1; no method described). The assay is classed as binding.
A further assay concerns the target BRAF (Homo sapiens, UniProt P15056). In words: KD BRAF (Table 1; no method described). It counts as binding.
Assay [1] relates to HCT116 cells (WT BRAF), ERK phospho-T202/Y204. In words: HTRF assay for P-ERK determination in HCT116 cells (BRAF activation, paradox). Particulars: for EC50: Homo sapiens, HCT-116, HCT116 cells, 1 hour drug incubation, activation relative to maximum Dabrafenib-mediated activation (100%), top concentration 10 μM, read-out: P-ERK_HCT-116: EC50—50PCT; for Fold Selectivity HCT-116 EC50-50/ A375: ratio of P-ERK HCT-116 EC50-50PCT to P-ERK A375 IC50. The assay is classed as cell-based. In short, it runs like this: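 HCT116 (WT BRAF) cells, 8000/well in DMEM + 10% FBS, treated 1 h with compound at 0.001–10 μM in duplicate; lysed, then HTRF antibodies for ERK phospho-T202/Y204, read after overnight dark incubation at room temperature. Blank-subtracted ratio normalized to DMSO (0%) and peak dabrafenib signal (100%); sigmoidal or bell-shaped fit gives % activation.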
For orientation: TR-FRET usually uses a lanthanide donor and a delayed reading to cut background.

The subject of assay [2] is A375 cells (V600E mutated BRAF), ERK phospho-T202/Y204. The experiment in a line: HTRF assay for P-ERK determination in A375 cells (BRAF inhibition). It counts as cell-based. Particulars: Homo sapiens, A-375, 1 hour drug incubation, DMSO = 100%, 10 μM Dabrafenib = 0%, top concentration 10 μM, read-out: P-ERK_A375: IC50. In short, it runs like this: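 A375 cells (V600E BRAF), 8000/well, treated 1 h with compounds at 0.001–10 μM final in duplicate; lysed and phospho-ERK (Thr202/Tyr204) read by HTRF at 665/620 nm after overnight RT incubation. Blank-subtracted ratios normalized to DMSO (100%) and 10 μM dabrafenib (0%); IC50 from sigmoidal fit.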

BRAF, sequence (P15056 whole entry): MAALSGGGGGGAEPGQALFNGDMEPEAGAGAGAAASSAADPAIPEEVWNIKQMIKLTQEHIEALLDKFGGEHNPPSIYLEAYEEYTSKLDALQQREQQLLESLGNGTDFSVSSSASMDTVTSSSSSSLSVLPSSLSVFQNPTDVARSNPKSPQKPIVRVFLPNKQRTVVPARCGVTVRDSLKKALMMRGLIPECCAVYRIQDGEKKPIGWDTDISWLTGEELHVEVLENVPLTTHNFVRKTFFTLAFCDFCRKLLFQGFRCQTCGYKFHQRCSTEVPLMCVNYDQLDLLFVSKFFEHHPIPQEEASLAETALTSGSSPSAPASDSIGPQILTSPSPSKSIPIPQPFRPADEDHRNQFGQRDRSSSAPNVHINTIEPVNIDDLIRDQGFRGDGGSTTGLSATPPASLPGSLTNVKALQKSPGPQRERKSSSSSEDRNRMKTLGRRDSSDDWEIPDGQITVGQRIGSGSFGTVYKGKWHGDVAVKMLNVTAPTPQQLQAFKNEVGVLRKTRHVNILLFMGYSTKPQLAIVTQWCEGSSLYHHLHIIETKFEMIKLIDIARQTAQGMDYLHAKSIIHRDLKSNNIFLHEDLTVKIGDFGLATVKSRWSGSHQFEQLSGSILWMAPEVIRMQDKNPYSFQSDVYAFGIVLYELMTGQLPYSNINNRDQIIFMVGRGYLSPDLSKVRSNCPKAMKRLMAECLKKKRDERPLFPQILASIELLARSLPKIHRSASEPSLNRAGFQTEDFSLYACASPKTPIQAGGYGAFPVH
BRAF V660E, sequence (P15056 2-766 V600E): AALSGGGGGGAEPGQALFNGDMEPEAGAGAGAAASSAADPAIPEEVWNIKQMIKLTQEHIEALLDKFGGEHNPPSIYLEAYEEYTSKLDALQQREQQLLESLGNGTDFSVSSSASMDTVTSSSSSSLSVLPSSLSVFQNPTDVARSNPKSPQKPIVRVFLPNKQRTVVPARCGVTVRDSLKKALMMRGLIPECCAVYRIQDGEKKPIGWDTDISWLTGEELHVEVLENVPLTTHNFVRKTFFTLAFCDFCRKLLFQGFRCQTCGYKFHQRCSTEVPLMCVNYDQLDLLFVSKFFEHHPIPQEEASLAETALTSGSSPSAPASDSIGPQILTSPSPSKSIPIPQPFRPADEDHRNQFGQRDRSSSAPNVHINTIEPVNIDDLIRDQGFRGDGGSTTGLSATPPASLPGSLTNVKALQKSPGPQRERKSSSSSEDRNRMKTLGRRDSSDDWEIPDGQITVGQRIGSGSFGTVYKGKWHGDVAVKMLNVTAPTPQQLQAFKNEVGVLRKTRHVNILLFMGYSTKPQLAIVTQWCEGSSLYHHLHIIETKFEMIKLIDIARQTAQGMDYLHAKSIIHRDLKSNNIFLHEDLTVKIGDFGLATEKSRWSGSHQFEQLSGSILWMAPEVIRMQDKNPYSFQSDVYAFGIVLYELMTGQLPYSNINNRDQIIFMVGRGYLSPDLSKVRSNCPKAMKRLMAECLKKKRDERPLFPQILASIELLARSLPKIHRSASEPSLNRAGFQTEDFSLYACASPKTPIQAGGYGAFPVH

Usually Kd stands for a measure of binding affinity in units of concentration. What is called EC50 is the concentration giving half of the maximal effect. Usually IC50 stands for the concentration needed to halve the response being measured. For `Cn1c(=O)c(-c2c(F)ccc(NS(=O)(=O)N3CC[C@@H](F)C3)c2F)cc2cnc(NCCc3cnc(CC(=O)OC(C)(C)C)nc3)nc21` [Example 48, tert-butyl 2-[5-[2-[[6-[2,6-difluoro-3-[[(3R)-3-fluoropyrrolidin-1-yl]sulfonylamino]phenyl]-8-methyl-7-oxopyrido[2,3-d]pyrimidin-2-yl]amino]ethyl]pyrimidin-2-yl]acetate], the Kd stood at 56.6 nM on BRAF V660E and 26.6 nM at BRAF. Also, in assay [1], the EC50 stood at 5920 nM. Besides, the “Fold Selectivity HCT-116 EC50-50/ A375” value in assay [1] was found to be 33.7. For the same compound, in assay [2], the IC50 was 176 nM.

With `CC(=O)N1Cc2ccc(CCNc3ncc4cc(-c5c(F)ccc(NS(=O)(=O)N6CC[C@@H](F)C6)c5F)c(=O)n(C)c4n3)cc2C1` [Example 49, (3R)—N-[3-[2-[2-(2-Acetyl-1,3-dihydroisoindol-5-yl)ethylamino]-8-methyl-7-oxopyrido[2,3-d]pyrimidin-6-yl]-2,4-difluorophenyl]-3-fluoropyrrolidine-1-sulfonamide], the Kd on BRAF V660E came out at 6.5 nM. Also, at BRAF, the Kd is 2.5 nM. In assay [1], the EC50 was 989 nM and the “Fold Selectivity HCT-116 EC50-50/ A375” value worked out at 117.8. In addition, the IC50 in assay [2] was 8.4 nM.

Compound `CC(=O)N1CCc2ccc(CCNc3ncc4cc(-c5c(F)ccc(NS(=O)(=O)N6CC[C@@H](F)C6)c5F)c(=O)n(C)c4n3)cc2C1` [Example 50, (3R)-N-[3-[2-[2-(2-acetyl-3,4-dihydro-1H-isoquinolin-7-yl)ethylamino]-8-methyl-7-oxopyrido[2,3-d]pyrimidin-6-yl]-2,4-difluorophenyl]-3-fluoropyrrolidine-1-sulfonamide] yielded a Kd on BRAF V660E of 13.8 nM. The same compound displayed a Kd on BRAF of 4.5 nM. Moreover, in assay [1], the EC50 came out at 1550 nM and the “Fold Selectivity HCT-116 EC50-50/ A375” value came to 103.6. Moreover, the IC50 in assay [2] was found to be 15 nM.

The record behind these values is patent publication US20230322776A1, “NEW ARYL-PYRIDO-PYRIMIDIN-ONE DERIVATIVES” (Hoffmann-La Roche Inc., priority 2020, published 2023).
